Test results: patent publication US10618918B2, “Substituted boronic acids as antimicrobials” (priority 2015, dated 2020)

Columns and labels:
[1] = system: KP1004 KPC-2; assay: Aztreonam potentiation (MPC@4), strain KP1004 KPC-2; details: minimum BLI concentration inhibiting growth with aztreonam 4 μg/mL; tested up to 40 μg/mL
[2] = system: AB1053 OXA-72; assay: Meropenem potentiation (MPC@8), strain AB1053 OXA-72; type: cell-based, Acinetobacter baumannii; details: minimum BLI concentration inhibiting growth with meropenem 8 μg/mL; tested up to 20 μg/mL
[3] = system: AB1054 OXA-23; assay: Meropenem potentiation (MPC@8), strain AB1054 OXA-23; type: cell-based, Acinetobacter baumannii; details: minimum BLI concentration inhibiting growth with meropenem 8 μg/mL; tested up to 20 μg/mL
[4] = system: KP1004 KPC-2; assay: Biapenem potentiation (MPC@1), strain KP1004 KPC-2; type: cell-based; details: minimum BLI concentration inhibiting growth with biapenem 1 μg/mL; tested up to 40 μg/mL
Description: (§1) Biapenem was present in the test medium at 1 μg/mL. […] Table 3 summarizes the BLI potency of biapenem potentiation (MPC@1) for two strains overexpressing class A (KPC) and class D (OXA-48) carbapenemases. Biapenem MIC for each strain is also shown.

[5] = system: KP1005 CTX-M-14; assay: Tigemonam potentiation (MPC@4), strain KP1005 CTX-M-14; details: minimum BLI concentration inhibiting growth with tigemonam 4 μg/mL; tested up to 40 μg/mL
[6] = system: ECL1002; assay: Aztreonam potentiation (MPC@4), strain ECL1002; details: minimum BLI concentration inhibiting growth with aztreonam 4 μg/mL; tested up to 40 μg/mL
[7] = system: KP1086 OXA-48; assay: Biapenem potentiation (MPC@1), strain KP1086 OXA-48; type: cell-based; details: minimum BLI concentration inhibiting growth with biapenem 1 μg/mL; tested up to 40 μg/mL
Description: as §1

[8] = system: ec308 SHV-5; assay: Aztreonam potentiation (MPC@4), strain ec308 SHV-5; details: minimum BLI concentration inhibiting growth with aztreonam 4 μg/mL; tested up to 40 μg/mL
[9] = system: EC1010 CMY-6; assay: Aztreonam potentiation (MPC@4), strain EC1010 CMY-6; details: minimum BLI concentration inhibiting growth with aztreonam 4 μg/mL; tested up to 40 μg/mL
[10] = system: ec302 TEM-10; assay: Aztreonam potentiation (MPC@4), strain ec302 TEM-10; details: minimum BLI concentration inhibiting growth with aztreonam 4 μg/mL; tested up to 40 μg/mL
[11] = biological target: purified class A, C and D enzymes (β-lactamases) (Escherichia coli, UniProt Q9L5C7); assay: biochemical; type: biochemical; details: purified CTX-M-14; nitrocefin (NCF) as reporter substrate
Chain of purified class A, C and D enzymes (β-lactamases) (Escherichia coli, UniProt Q9L5C7) (Q9L5C7 entry or part of it): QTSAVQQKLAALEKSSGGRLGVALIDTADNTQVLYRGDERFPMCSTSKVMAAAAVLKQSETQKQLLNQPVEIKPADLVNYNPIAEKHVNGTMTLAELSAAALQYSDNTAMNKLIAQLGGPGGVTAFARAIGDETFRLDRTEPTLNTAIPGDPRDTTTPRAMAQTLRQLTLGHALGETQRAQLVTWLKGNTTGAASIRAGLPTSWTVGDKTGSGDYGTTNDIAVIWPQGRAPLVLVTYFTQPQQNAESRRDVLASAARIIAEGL

[12] = biological target: purified class A, C and D enzymes (β-lactamases) (Klebsiella pneumoniae, UniProt Q6XEC0); assay: biochemical; type: biochemical; details: purified OXA-48; nitrocefin (NCF) as reporter substrate
[13] = biological target: T1, purified class A, C and D enzymes (β-lactamases) (Pseudomonas aeruginosa, UniProt P24735); assay: biochemical; type: biochemical
T1 construct: rows headed: Ki (Pa-AmpC, NCF), uM; other: purified Pa-AmpC; nitrocefin (NCF) as reporter substrate
T1 sequence (P24735 whole entry): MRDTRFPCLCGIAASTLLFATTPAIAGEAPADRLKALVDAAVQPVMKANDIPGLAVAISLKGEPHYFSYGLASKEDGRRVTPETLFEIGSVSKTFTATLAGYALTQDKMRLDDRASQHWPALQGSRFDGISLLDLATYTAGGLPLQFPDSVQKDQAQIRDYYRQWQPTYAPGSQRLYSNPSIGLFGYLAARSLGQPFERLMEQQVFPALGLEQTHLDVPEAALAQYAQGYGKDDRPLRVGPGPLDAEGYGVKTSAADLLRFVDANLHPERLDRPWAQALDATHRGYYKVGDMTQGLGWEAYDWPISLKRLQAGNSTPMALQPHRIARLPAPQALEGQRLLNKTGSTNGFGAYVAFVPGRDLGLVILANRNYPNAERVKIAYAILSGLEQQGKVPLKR

[14] = biological target: purified class A, C and D enzymes (β-lactamases) (Enterobacter cloacae, UniProt P05364); assay: biochemical; type: biochemical
Chain of purified class A, C and D enzymes (β-lactamases) (Enterobacter cloacae, UniProt P05364) (P05364 21-381): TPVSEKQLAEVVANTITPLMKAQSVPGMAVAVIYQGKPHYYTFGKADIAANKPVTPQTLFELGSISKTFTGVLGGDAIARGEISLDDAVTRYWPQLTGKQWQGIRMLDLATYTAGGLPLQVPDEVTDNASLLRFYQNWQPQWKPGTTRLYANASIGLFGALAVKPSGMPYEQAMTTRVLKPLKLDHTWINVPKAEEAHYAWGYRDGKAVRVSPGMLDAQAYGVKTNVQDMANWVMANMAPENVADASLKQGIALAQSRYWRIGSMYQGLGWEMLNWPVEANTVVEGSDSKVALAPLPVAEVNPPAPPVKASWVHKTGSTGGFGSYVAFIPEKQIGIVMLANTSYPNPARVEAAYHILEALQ

[15] = biological target: T2, purified class A, C and D enzymes (β-lactamases) (Acinetobacter baumannii, UniProt Q9L4P2); assay: biochemical; type: biochemical; details: purified OXA-23; nitrocefin (NCF) as reporter substrate
T2 construct: rows headed: Ki (OXA-23, NCF), uM; other: purified OXA-23; nitrocefin (NCF) as reporter substrate
T2 sequence (Q9L4P2 whole entry): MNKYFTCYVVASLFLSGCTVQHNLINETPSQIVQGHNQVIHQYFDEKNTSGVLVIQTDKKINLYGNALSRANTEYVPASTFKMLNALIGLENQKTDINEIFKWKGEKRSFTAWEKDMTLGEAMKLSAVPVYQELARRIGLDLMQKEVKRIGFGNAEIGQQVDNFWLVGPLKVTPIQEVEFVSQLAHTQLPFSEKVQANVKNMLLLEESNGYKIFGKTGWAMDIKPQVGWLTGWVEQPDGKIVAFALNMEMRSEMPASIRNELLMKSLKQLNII

[16] = biological target: purified class A, C and D enzymes (β-lactamases) (Klebsiella pneumoniae, UniProt Q9F663); assay: biochemical; type: biochemical; details: purified KPC-2; nitrocefin (NCF) as reporter substrate
[17] = system: KP1009 CTX-M-15; assay: Aztreonam potentiation (MPC@4), strain KP1009 CTX-M-15; details: minimum BLI concentration inhibiting growth with aztreonam 4 μg/mL; tested up to 40 μg/mL
[18] = system: KP1010 SHV-12; assay: Aztreonam potentiation (MPC@4), strain KP1010 SHV-12; details: minimum BLI concentration inhibiting growth with aztreonam 4 μg/mL; tested up to 40 μg/mL

SMILES	AZT MPC4 KPC-2 KP1004 [1]	MPM MPC8 AB1053 OXA-72 [2]	MPM MPC8 AB1054 OXA-23 [3]	BPM MPC1 KP1004 KPC-2 [4]	TIG MPC4 CTX-M-14 KP1005 [5]	AZT MPC4 ECL1002 [6]	BPM MPC1 OXA-48 KP1086 [7]	AZT MPC4 SHV-5 ec308 [8]	AZT MPC4 CMY-6 EC1010 [9]	AZT MPC4 TEM-10 ec302 [10]	Ki (CTX-M-14, NCF), uM [11]	Ki (OXA-48, NCF), uM [12]	Ki [13] [µM]	Ki (P99, NCF), uM [14]	Ki [15] [µM]	Ki (KPC-2, NCF), uM [16]	AZT MPC4 CTX-M-15 KP1009 [17]	AZT MPC4 SHV-12 KP1010 [18]
O=C([O-])c1c(CSc2nncs2)ccc2c1O[B-](O)(O)CC2.[Na+].[Na+] [Compound 20, Disodium; 4,4-dihydroxy-8-(1,3,4-thiadiazol-2-ylsulfanylmethyl)-5-oxa-4-boranuidabicyclo[4.4.0]deca-1(6),7,9-triene-7-carboxylate]	X (X = MPC@4 ≤ 5 μg/mL)	Y (Y = 5 μg/mL < MPC@1 ≤ 20 μg/mL)	Y (Y = 5 μg/mL < MPC@1 ≤ 20 μg/mL)	X (X = MPC@1 ≤ 5 μg/mL)	Y (Y = 5 μg/mL < MPC@4 ≤ 20 μg/mL)	X (X = MPC@4 ≤ 5 μg/mL)	X (X = MPC@1 ≤ 5 μg/mL)	X (X = MPC@4 ≤ 5 μg/mL)	X (X = MPC@4 ≤ 5 μg/mL)	X (X = MPC@4 ≤ 5 μg/mL)	X (X = Ki ≤ 0.1 μM)	X (X = Ki ≤ 0.1 μM)	< 0.1	X (key: X = Ki ≤ 0.1 μM; Y = 0.1 μM < Ki ≤ 1 μM; Z = Ki > 1 μM)	< 0.1	X (X = Ki ≤ 0.1 μM)	X (X = MPC@4 ≤ 5 μg/mL)	X (X = MPC@4 ≤ 5 μg/mL)
NCCCSCc1ccc2c(c1C(=O)[O-])O[B-](O)(O)CC2.[Na+].[Na+] [Compound 21, Disodium; 8-(3-aminopropylsulfanylmethyl)-4,4-dihydroxy-5-oxa-4-boranuidabicyclo[4.4.0]deca-1(6),7,9-triene-7-carboxylate]	X (X = MPC@4 ≤ 5 μg/mL)	X (X = MPC@1 ≤ 5 μg/mL)	X (X = MPC@1 ≤ 5 μg/mL)	X (X = MPC@1 ≤ 5 μg/mL)	Z (Z = MPC@4 > 20 μg/mL)	Y (Y = 5 μg/mL < MPC@4 ≤ 20 μg/mL)	X (X = MPC@1 ≤ 5 μg/mL)	Y (Y = 5 μg/mL < MPC@4 ≤ 20 μg/mL)	X (X = MPC@4 ≤ 5 μg/mL)	Y (Y = 5 μg/mL < MPC@4 ≤ 20 μg/mL)	X (X = Ki ≤ 0.1 μM)	X (X = Ki ≤ 0.1 μM)	< 0.1	X (key: X = Ki ≤ 0.1 μM; Y = 0.1 μM < Ki ≤ 1 μM; Z = Ki > 1 μM)	< 0.1	X (X = Ki ≤ 0.1 μM)	Y (Y = 5 μg/mL < MPC@4 ≤ 20 μg/mL)	X (X = MPC@4 ≤ 5 μg/mL)
Nc1nnc(SCc2ccc3c(c2C(=O)[O-])O[B-](O)(O)CC3)s1.[Na+].[Na+] [Compound 22, Disodium; 8-[(5-amino-1,3,4-thiadiazol-2-yl)sulfanylmethyl]-4,4-dihydroxy-5-oxa-4-boranuidabicyclo[4.4.0]deca-1(6),7,9-triene-7-carboxylate]	X (X = MPC@4 ≤ 5 μg/mL)	Z (Z = MPC@1 > 20 μg/mL)	Y (Y = 5 μg/mL < MPC@1 ≤ 20 μg/mL)	X (X = MPC@1 ≤ 5 μg/mL)	Z (Z = MPC@4 > 20 μg/mL)	Y (Y = 5 μg/mL < MPC@4 ≤ 20 μg/mL)	Y (Y = 5 μg/mL < MPC@1 ≤ 20 μg/mL)	Y (Y = 5 μg/mL < MPC@4 ≤ 20 μg/mL)	X (X = MPC@4 ≤ 5 μg/mL)	X (X = MPC@4 ≤ 5 μg/mL)	X (X = Ki ≤ 0.1 μM)	X (X = Ki ≤ 0.1 μM)	< 0.1	X (key: X = Ki ≤ 0.1 μM; Y = 0.1 μM < Ki ≤ 1 μM; Z = Ki > 1 μM)	< 0.1	X (X = Ki ≤ 0.1 μM)	Y (Y = 5 μg/mL < MPC@4 ≤ 20 μg/mL)	X (X = MPC@4 ≤ 5 μg/mL)
